The record followed here is PMC6270359, “Cholinesterase Enzymes Inhibitors from the Leaves of Rauvolfia Reflexa and Their Molecular Docking Study” (Molecules, 2013).

For assay [1], the target named is T1, acetylcholinesterase from electric eel (AChE) (Electrophorus electricus, UniProt O42275).
T1 construct: purchased Sigma Chemicals (St. Louis, MO, USA)
Nature of the assay: Acetylcholinesterase inhibitory assay (Ellman's microplate assay). The assay is classed as biochemical. As to conditions: for IC50: Mean ± SD (n = 3). The method, then:
(§1) Acetylthiocholine iodide (ATCl), acetylcholinesterase from electric eel (AChE), 5,5'-dithiobis[2-nitrobenzoic acid] […] All the other reagents used were of analytical grade.
(§2) Cholinesterase enzymes inhibitory potential of test samples was evaluated using Ellman’s microplate assay following the method described by Ahmed and Gilani with slight modifications. […] The concentration of DMSO in final reaction mixture was 1%.
(§3) For acetylcholinesterase (AChE) inhibitory assay, 140 μL of 0.1 M sodium phosphate buffer (pH 8) was first added to a 96-wells microplate followed by 20 μL of test samples and 20 μL of 0.09 units/mL acetylcholinesterase enzyme. After 15 min of pre-incubation at 25 °C, 10 μL of 10 mM 5,5'-dithiobis (2-nitrobenzoic acid) was added into each well, followed by 10 μL of 14 mM acetylthiocholine iodide. After the initiation of enzymatic reaction, absorbance of the coloured end-product was measured for 15 min using Tecan Infinite 200 Pro Microplate Spectrophotometer (Männedorf, Switzerland) at 417 nm.
(§4) For butyrylcholinesterase (BChE) inhibitory assay, the same procedures as described above were followed except for the use of enzyme and substrate, which were BChE from equine serum and S-butyrylthiocholine chloride, respectively. Each test was conducted in triplicate. Absorbencies of the test samples were corrected by subtracting the absorbance of their respective blank. […] Percentage inhibition was calculated using the following formula: Percentage inhibition (%) = Absorbance of control - Absorbance of test sample/Absorbance of control×100%
On the technique in general: In Ellman's method for cholinesterases, released thiocholine reacts with DTNB.

Assay [2] has as its target T2, butyrylcholinesterase from equine serum (BChE) (Equus caballus, UniProt P81908).
T2 construct: purchased Sigma Chemicals (St. Louis, MO, USA); host or cells: equine serum
Nature of the assay: Butyrylcholinesterase inhibitory assay (Ellman's microplate assay). Format: biochemical. The procedure:
as §1, §2, §3, §4

The mark [3] stands for this setting: chemical constituents, read-out: AChE inhibition, IC50 (converted).
The mark [4] stands for this setting: isolated chemical constituents at 10 μg/mL, initial screening.

Each structure is given as a SMILES string. Where “and” joins values, the source holds several entries; their conditions need not be identical. Equal entries are not always repeated. Where two headings read alike, the source gives them in different places.

T2 sequence (P81908 whole entry): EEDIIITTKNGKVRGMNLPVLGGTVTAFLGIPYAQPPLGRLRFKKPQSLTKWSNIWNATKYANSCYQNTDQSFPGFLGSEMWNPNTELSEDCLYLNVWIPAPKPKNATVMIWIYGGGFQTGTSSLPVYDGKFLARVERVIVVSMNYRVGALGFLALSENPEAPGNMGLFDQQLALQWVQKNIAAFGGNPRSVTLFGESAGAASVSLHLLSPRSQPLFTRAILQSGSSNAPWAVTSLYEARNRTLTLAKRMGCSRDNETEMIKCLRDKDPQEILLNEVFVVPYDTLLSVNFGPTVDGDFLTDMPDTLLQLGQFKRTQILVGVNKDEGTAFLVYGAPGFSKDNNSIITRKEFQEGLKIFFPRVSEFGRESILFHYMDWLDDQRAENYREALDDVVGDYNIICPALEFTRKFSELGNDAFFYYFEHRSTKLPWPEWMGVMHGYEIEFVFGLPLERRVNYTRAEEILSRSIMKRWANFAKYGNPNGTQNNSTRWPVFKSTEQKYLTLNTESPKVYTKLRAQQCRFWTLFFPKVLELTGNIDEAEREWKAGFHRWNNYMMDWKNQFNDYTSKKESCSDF
T1 sequence (O42275 24-633): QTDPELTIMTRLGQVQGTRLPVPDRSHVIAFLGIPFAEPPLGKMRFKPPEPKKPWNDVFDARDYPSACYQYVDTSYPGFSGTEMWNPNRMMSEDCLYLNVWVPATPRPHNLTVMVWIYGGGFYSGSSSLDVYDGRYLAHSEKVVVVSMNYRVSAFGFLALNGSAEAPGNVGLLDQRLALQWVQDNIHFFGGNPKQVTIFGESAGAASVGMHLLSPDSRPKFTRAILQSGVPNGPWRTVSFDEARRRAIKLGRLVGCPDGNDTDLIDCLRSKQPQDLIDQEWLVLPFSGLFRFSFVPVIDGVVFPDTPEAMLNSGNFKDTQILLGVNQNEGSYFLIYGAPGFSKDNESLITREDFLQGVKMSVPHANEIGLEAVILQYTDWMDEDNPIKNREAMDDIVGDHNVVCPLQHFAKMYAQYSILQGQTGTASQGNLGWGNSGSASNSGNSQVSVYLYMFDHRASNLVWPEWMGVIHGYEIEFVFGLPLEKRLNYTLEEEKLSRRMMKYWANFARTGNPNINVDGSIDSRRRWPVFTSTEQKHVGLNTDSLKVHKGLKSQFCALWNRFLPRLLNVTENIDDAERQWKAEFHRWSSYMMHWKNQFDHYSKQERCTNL

Broadly, the IC50 is the concentration needed to halve the response being measured. By inhibition is commonly meant the relative decrease from the control value, in per cent. Low readings indicate a weak effect, high ones a strong effect. Take `O=C1NCCc2c1[nH]c1ccccc21` [Compound 4, 1,2,3,4-Tetrahydro-1-oxo-β-carboline]: the IC50 in assay [1] (setting [3]) is 83.3 µM and 83.4 µM. In assay [1] (setting [4]), this molecule displayed an inhibition at 10 µg/mL of 41.3%.
Take `COC(=O)/C=C/c1cc(OC)c(O)c(OC)c1` [Compound 2, (E)-methyl 3-(4-hydroxy-3,5-dimethoxyphenyl) acrylate]: in assay [1] (chemical constituents, IC50(BChE)/IC50(AChE)), the “Selectivity for AChE” value is 0.39. Also, the IC50 in assay [1] (setting [3]) is 158 µM; in assay [2] (chemical constituents, Mean ± SD (n = 3), read-out: BChE inhibition, IC50 (converted)), 61.7 µM. Moreover, the inhibition at 10 µg/mL worked out at 40.4% in assay [1] (setting [4]) and 91.3% in assay [2] (setting [4]). Moreover, the “Selectivity for BChE” value in assay [2] (chemical constituents, IC50(AChE)/IC50(BChE)) turned out to be 2.56.
For `COc1cc(/C=C/C(=O)O)cc(OC)c1OC` [Compound 1, (E)-3-(3,4,5-Trimethoxyphenyl) acrylic acid], the IC50 in assay [1] (AChE inhibition, IC50, chemical constituents) is 60.1 µM; in assay [1] (read-out: AChE inhibition, IC50, chemical constituents) it was 60.2 ± 14.4 µM. Moreover, in assay [1] (setting [4]), the AChE inhibition entry was “much lower inhibition”.
